Data from US20090075937A1, “LHRH ANTAGONISTS FOR THE TREATMENT OF LOWER URINARY TRACT SYMPTOMS” (AETERNA ZENTARIS GmbH, priority 2007, published 2009).

Legend:
study subjects [1] = assay: Peroral treatment of study subjects with tetrahydrocarbazole compounds: chemical (hormonal) castration (Examples 4-9); assay type: in vivo, human; conditions: 50 to 150 mg perorally daily as a single dose, schemes of 6 weeks to 6 months
Description: In the course of the present invention, the terms “hormone” and “hormonal” within for instance the terms “hormone castration”, “chemical (hormonal) castration” or “hormone withdrawal symptoms” refer to follicle stimulating hormone (FSH), luteinizing hormone (LH) and/or testosterone. Preferably, chemical (hormonal) castration is a testosterone castration and refers to a testosterone blood level of equal or below 1.2 ng/mL, preferably 0.5 ng/mL.
Study subjects are treated with compound (76) with the following doses according to the following administration schemes: • in a 3 month trial, 75 mg or 150 mg compound (76) administered perorally daily as a single dose on day 2-7 of the menstrual cycle • in a 3 months trial, 75 mg, 100 mg or 150 mg compound (76) administered perorally daily as a single dose on day 2-7 of the menstrual cycle followed by a 3 months treatment-free period • in a 6 months trial, 75 mg or 150 mg compound (76) administered perorally daily as a single dose • 50 mg or 150 mg per compound (76) administered daily as a single dose over 42 days (6 weeks)
Study subjects are treated with compound (68) with the following doses according to the following administration schemes: • in a 3 month trial, 75 mg or 150 mg compound (68) administered perorally daily as a single dose on day 2-7 of the menstrual cycle • in a 3 months trial, 75 mg, 100 mg or 150 mg compound (68) administered perorally daily as a single dose on day 2-7 of the menstrual cycle followed by a 3 months treatment-free period • in a 6 months trial, 75 mg or 150 mg compound (68) administered perorally daily as a single dose • 50 mg or 150 mg per compound (68) administered daily as a single dose over 42 days (6 weeks)
Study subjects are treated with compound 36 with the following doses according to the following administration schemes: • in a 3 month trial, 75 mg or 150 mg compound 36 administered perorally daily as a single dose on day 2-7 of the menstrual cycle • in a 3 months trial, 75 mg, 100 mg or 150 mg compound 36 administered perorally daily as a single dose on day 2-7 of the menstrual cycle followed by a 3 months treatment-free period • in a 6 months trial, 75 mg or 150 mg compound 36 administered perorally daily as a single dose • 50 mg or 150 mg per compound 36 administered daily as a single dose over 42 days (6 weeks)
Study subjects are treated with compound 37 with the following doses according to the following administration schemes: • in a 3 month trial, 75 mg or 150 mg compound 37 administered perorally daily as a single dose on day 2-7 of the menstrual cycle • in a 3 months trial, 75 mg, 100 mg or 150 mg compound 37 administered perorally daily as a single dose on day 2-7 of the menstrual cycle followed by a 3 months treatment-free period • in a 6 months trial, 75 mg or 150 mg compound 37 administered perorally daily as a single dose • 50 mg or 150 mg per compound 37 administered daily as a single dose over 42 days (6 weeks)
Study subjects are treated with compound 52 with the following doses according to the following administration schemes: • in a 3 month trial, 75 mg or 150 mg compound 52 administered perorally daily as a single dose on day 2-7 of the menstrual cycle • in a 3 months trial, 75 mg, 100 mg or 150 mg compound 52 administered perorally daily as a single dose on day 2-7 of the menstrual cycle followed by a 3 months treatment-free period • in a 6 months trial, 75 mg or 150 mg compound 52 administered perorally daily as a single dose • 50 mg or 150 mg per compound 52 administered daily as a single dose over 42 days (6 weeks)

study subjects [2] = assay: Peroral treatment of study subjects with tetrahydrocarbazole compounds: nocturia frequency, urgency to urinate, frequency of emptying (Examples 4-9); assay type: in vivo, human; conditions: 50 to 150 mg perorally daily as a single dose, schemes of 6 weeks to 6 months
study subjects [3] = assay: Frequency of emptying: how often the study subjects had to urinate a second time within a 2 hour test period; assay type: in vivo, human; conditions: for Frequency of emptying (n-times, mean): 15 + 15: 15 mg at week 0 and week 2
Description: (§1) The results shown are percentage variations from baseline at the beginning of the study (week 0).
The results shown are mean values, how often the study subjects had to urinate a second time.

study subjects [4] = assay: IPSS irritative subscore (sum of nocturia, frequency of emptying and urgency to urinate); assay type: in vivo, human; conditions: for IPSS irritative subscore (nocturia, frequency of emptying, urgency to urinate): percentage variation from baseline
Description: as §1

study subjects [5] = assay: Nocturia: how often the study subjects got up during the night in order to urinate; assay type: in vivo, human; conditions: for Nocturia (n-times, mean): 15 + 15: 15 mg at week 0 and week 2
Description: as §1
The results shown are mean values, how often the study subjects had to get up.

[6] = tested on: testosterone blood levels; assay: Median testosterone blood levels / chemical (hormonal) castration; conditions: blood level
Description: Preferably, chemical (hormonal) castration is a testosterone castration and refers to a testosterone blood level of equal or below 1.2 ng/mL, preferably 0.5 ng/mL.
Study subjects were treated with Cetrorelix pamoate with the following doses according to the following administration schemes: • 60 mg Cetrorelix pamaote administered at week 0 and 30 mg Cetrorelix pamaote administered at week 2 (treatment period) followed by up to 5 months of no treatment (treatment-free period) • 60 mg Cetrorelix pamaote administered at week 0 and 60 mg Cetrorelix pamaote administered at week 2 (treatment period) followed by up to 5 months of no treatment (treatment-free period)
Study subjects were treated with Cetrorelix acetate with the following doses according to the following administration schemes: • 5 mg Cetrorelix acetate administered at week 0, 1, 2 and 3 (total monthly dose of 20 mg) (treatment period) followed by up to 4 months of no treatment (treatment-free period) • 10 mg Cetrorelix acetate administered at week 0 and 10 mg Cetrorelix acetate administered at week 2 (treatment period) followed by up to 4 months of no treatment (treatment-free period) • 10 mg Cetrorelix acetate administered at week 0, 1, 2 and 3 (total monthly dose of 40 mg) (treatment period) followed by up to 4 months of no treatment (treatment-free period)
Study subjects were treated with Ozarelix with the following doses according to the following administration schemes: • 15 mg Ozarelix administered at week 0 and 15 mg Ozarelix administered at week 2 (treatment period) followed by up to 4 months of no treatment (treatment-free period)

study subjects [7] = assay: Urgency to urinate: how often the study subjects had difficulties to delay the urination; assay type: in vivo, human; conditions: for Urgency to urinate (n-times, mean): 15 + 15: 15 mg at week 0 and week 2
Description: The results shown are mean values, how often the study subjects had difficulties.

[8] = 60+30 mg and 60+60 mg schemes, largest difference over weeks 4-24
[9] = 60 + 30: 60 mg week 0, 30 mg week 2, Week 0
[10] = 60 + 30: 60 mg week 0, 30 mg week 2, Week 4
[11] = 60 + 30: 60 mg week 0, 30 mg week 2, Week 8
[12] = 60 + 30: 60 mg week 0, 30 mg week 2, Week 12
[13] = 60 + 30: 60 mg week 0, 30 mg week 2, Week 16
[14] = 60 + 30: 60 mg week 0, 30 mg week 2, Week 20
[15] = 60 + 30: 60 mg week 0, 30 mg week 2, Week 24
[16] = 60 + 60: 60 mg week 0, 60 mg week 2, Week 0
[17] = 60 + 60: 60 mg week 0, 60 mg week 2, Week 4
[18] = 60 + 60: 60 mg week 0, 60 mg week 2, Week 8
[19] = 60 + 60: 60 mg week 0, 60 mg week 2, Week 12
[20] = 60 + 60: 60 mg week 0, 60 mg week 2, Week 16
[21] = 60 + 60: 60 mg week 0, 60 mg week 2, Week 20
[22] = 60 + 60: 60 mg week 0, 60 mg week 2, Week 24
[23] = 15+15 mg scheme, largest difference, n-times mean

CCC(C)[C@H](NC(=O)Cc1ccccc1F)C(=O)N[C@]1(C(=O)N[C@H](C(=O)NCN2CCOCC2)C(C)CC)CCc2[nH]c3c(C(F)(F)F)cccc3c2C1 (stereo partly drawn) [Compound 36, (R)-3-{(S)-2-[2-(2-Fluoro-phenyl)-acetylamino]-3-methyl-pentanoylamino}-8-trifluoromethyl-2,3,4,9-tetrahydro-1H-carbazole-3-carboxylic acid {(S)-2-methyl-1-[(morpholin-4-ylmethyl)-carbamoyl]-butyl}-amide]
chemical (hormonal) castration (study subjects [1]): successfully prevented
nocturia frequency, urgency to urinate and/or frequency of emptying compared to placebo (study subjects [2]): decrease

CCC(C)[C@H](NC(=O)Cc1ccccc1F)C(=O)N[C@]1(C(=O)N[C@H](C(=S)NCN2CCOCC2)C(C)CC)CCc2[nH]c3c(C(F)(F)F)cccc3c2C1 (stereo partly drawn) [Compound 37, (R)-3-{(S)-2-[2-(2-Fluoro-phenyl)-acetylamino]-3-methyl-pentanoylamino}-8-trifluoromethyl-2,3,4,9-tetrahydro-1H-carbazole-3-carboxylic acid {(S)-2-methyl-1-[(morpholin-4-ylmethyl)-thiocarbamoyl]-butyl}-amide]
chemical (hormonal) castration (study subjects [1]): successfully prevented
nocturia frequency, urgency to urinate and/or frequency of emptying compared to placebo (study subjects [2]): decrease

CCC(C)[C@H](NC(=O)Cc1ccccc1F)C(=O)N[C@]1(C(=O)N[C@H](C(=S)NCC2CCOCC2)C(C)CC)CCc2[nH]c3c(C(F)(F)F)cccc3c2C1 (stereo partly drawn) [Compound 52, (R)-3-{(S)-2-[2-(2-Fluoro-phenyl)-acetylamino]-3-methyl-pentanoylamino}-8-trifluoromethyl-2,3,4,9-tetrahydro-1H-carbazole-3-carboxylic acid {(S)-2-methyl-1-[K(tetrahydro-pyran-4-ylmethyl)-thiocarbamoyl]-butyl}-amide]
chemical (hormonal) castration (study subjects [1]): successfully prevented
nocturia frequency, urgency to urinate and/or frequency of emptying compared to placebo (study subjects [2]): decrease

CCC(C)[C@H](NC(=O)Cc1ccccc1F)C(=O)N[C@]1(C(=O)N[C@H](C(=O)NNc2ccccc2)C(C)CC)CCc2[nH]c3c(C(F)(F)F)cccc3c2C1 (stereo partly drawn) [Compound 144, (R)-3-{(S)-2-[2-(2-Fluoro-phenyl)-acetylamino]-3-methyl-pentanoylamino}-8-trifluoromethyl-2,3,4,9-tetrahydro-1H-carbazole-3-carboxylic acid [(S)-2-methyl-1-(N′-phenyl-hydrazinocarbonyl)-butyl]-amide]
chemical (hormonal) castration (study subjects [1]): successfully prevented
nocturia frequency, urgency to urinate and/or frequency of emptying compared to placebo (study subjects [2]): decrease

Cetrorelix pamoate
further decrease in frequency (of emptying) compared to placebo (study subjects [3]; [8]): up to 29%
Frequency of emptying (percentage variation from baseline) (study subjects [3]; [9]): 0%
Frequency of emptying (percentage variation from baseline) (study subjects [3]; [10]): −9%
Frequency of emptying (percentage variation from baseline) (study subjects [3]; [11]): −19%
Frequency of emptying (percentage variation from baseline) (study subjects [3]; [12]): −20%
Frequency of emptying (percentage variation from baseline) (study subjects [3]; [13]): −26%
Frequency of emptying (percentage variation from baseline) (study subjects [3]; [14]): −27%
Frequency of emptying (percentage variation from baseline) (study subjects [3]; [15]): −31%
Frequency of emptying (percentage variation from baseline) (study subjects [3]; [16]): 0%
Frequency of emptying (percentage variation from baseline) (study subjects [3]; [17]): −16%
Frequency of emptying (percentage variation from baseline) (study subjects [3]; [18]): −25%
Frequency of emptying (percentage variation from baseline) (study subjects [3]; [19]): −24%
Frequency of emptying (percentage variation from baseline) (study subjects [3]; [20]): −29%
Frequency of emptying (percentage variation from baseline) (study subjects [3]; [21]): −25%
Frequency of emptying (percentage variation from baseline) (study subjects [3]; [22]): −34%
further decrease in IPSS irritative subscore compared to placebo (study subjects [4]; [8]): up to 30%
IPSS irritative subscore (nocturia, frequency of emptying, urgency to urinate) (study subjects [4]; [9]): 0%
IPSS irritative subscore (nocturia, frequency of emptying, urgency to urinate) (study subjects [4]; [10]): −14.8%
IPSS irritative subscore (nocturia, frequency of emptying, urgency to urinate) (study subjects [4]; [11]): −33.3%
IPSS irritative subscore (nocturia, frequency of emptying, urgency to urinate) (study subjects [4]; [12]): −29.3%
IPSS irritative subscore (nocturia, frequency of emptying, urgency to urinate) (study subjects [4]; [13]): −33.3%
IPSS irritative subscore (nocturia, frequency of emptying, urgency to urinate) (study subjects [4]; [14]): −33.3%
IPSS irritative subscore (nocturia, frequency of emptying, urgency to urinate) (study subjects [4]; [15]): −38%
IPSS irritative subscore (nocturia, frequency of emptying, urgency to urinate) (study subjects [4]; [16]): 0%
IPSS irritative subscore (nocturia, frequency of emptying, urgency to urinate) (study subjects [4]; [17]): −16.7%
IPSS irritative subscore (nocturia, frequency of emptying, urgency to urinate) (study subjects [4]; [18]): −25%
IPSS irritative subscore (nocturia, frequency of emptying, urgency to urinate) (study subjects [4]; [19]): −25%
IPSS irritative subscore (nocturia, frequency of emptying, urgency to urinate) (study subjects [4]; [20]): −25%
IPSS irritative subscore (nocturia, frequency of emptying, urgency to urinate) (study subjects [4]; [21]): −27.6%
IPSS irritative subscore (nocturia, frequency of emptying, urgency to urinate) (study subjects [4]; [22]): −40%
further decrease in nocturia frequency compared to placebo (study subjects [5]; [8]): up to 11%
Nocturia (percentage variation from baseline) (study subjects [5]; [9]): 0%
Nocturia (percentage variation from baseline) (study subjects [5]; [10]): −14%
Nocturia (percentage variation from baseline) (study subjects [5]; [11]): −26%
Nocturia (percentage variation from baseline) (study subjects [5]; [12]): −27%
Nocturia (percentage variation from baseline) (study subjects [5]; [13]): −27%
Nocturia (percentage variation from baseline) (study subjects [5]; [14]): −33%
Nocturia (percentage variation from baseline) (study subjects [5]; [15]): −26%
Nocturia (percentage variation from baseline) (study subjects [5]; [16]): 0%
Nocturia (percentage variation from baseline) (study subjects [5]; [17]): −17%
Nocturia (percentage variation from baseline) (study subjects [5]; [18]): −26%
Nocturia (percentage variation from baseline) (study subjects [5]; [19]): −30%
Nocturia (percentage variation from baseline) (study subjects [5]; [20]): −25%
Nocturia (percentage variation from baseline) (study subjects [5]; [21]): −27%
Nocturia (percentage variation from baseline) (study subjects [5]; [22]): −29%
Testosterone [ng/mL] (median) [6, 9]: 3.96 ng/mL
Testosterone [ng/mL] (median) [6, 10]: 2.59 ng/mL
Testosterone [ng/mL] (median) [6, 11]: 4.01 ng/mL
Testosterone [ng/mL] (median) [6, 12]: 4.10 ng/mL
Testosterone [ng/mL] (median) [6, 13]: 3.96 ng/mL
Testosterone [ng/mL] (median) [6, 14]: 4.12 ng/mL
Testosterone [ng/mL] (median) [6, 15]: 4.30 ng/mL
Testosterone [ng/mL] (median) [6, 16]: 3.71 ng/mL
Testosterone [ng/mL] (median) [6, 17]: 2.19 ng/mL
Testosterone [ng/mL] (median) [6, 18]: 3.70 ng/mL
Testosterone [ng/mL] (median) [6, 19]: 3.73 ng/mL

Ozarelix
decrease in frequency of emptying compared to placebo (study subjects [3]; [23]): up to 0.30
Frequency of emptying (n-times, mean) (study subjects [3]; Week 4): 2.48 n-times
Frequency of emptying (n-times, mean) (study subjects [3]; Week 8): 2.11 n-times
Frequency of emptying (n-times, mean) (study subjects [3]; Week 12): 1.82 n-times
Frequency of emptying (n-times, mean) (study subjects [3]; Week 16): 1.75 n-times
Frequency of emptying (n-times, mean) (study subjects [3]; Week 20): 1.71 n-times
Frequency of emptying (n-times, mean) (study subjects [3]; Week 24): 1.75 n-times
decrease in nocturia frequency compared to placebo (study subjects [5]; [23]): up to 0.76
Nocturia (n-times, mean) (study subjects [5]; Week 0): 2.73 n-times
Nocturia (n-times, mean) (study subjects [5]; Week 4): 1.83 n-times
Nocturia (n-times, mean) (study subjects [5]; Week 8): 1.43 n-times
Nocturia (n-times, mean) (study subjects [5]; Week 12): 1.54 n-times
Nocturia (n-times, mean) (study subjects [5]; Week 16): 1.54 n-times
Nocturia (n-times, mean) (study subjects [5]; Week 20): 1.50 n-times
Nocturia (n-times, mean) (study subjects [5]; Week 24): 1.54 n-times
Testosterone [ng/mL] (median) ([6]; 15 + 15: 15 mg at week 0 and week 2, Week 0): 3.57 ng/mL
Testosterone [ng/mL] (median) ([6]; 15 + 15: 15 mg at week 0 and week 2, Week 4): 2.97 ng/mL
Testosterone [ng/mL] (median) ([6]; 15 + 15: 15 mg at week 0 and week 2, Week 8): 4.19 ng/mL
Testosterone [ng/mL] (median) ([6]; 15 + 15: 15 mg at week 0 and week 2, Week 12): 4.11 ng/mL
Testosterone [ng/mL] (median) ([6]; 15 + 15: 15 mg at week 0 and week 2, Week 16): 3.82 ng/mL
Testosterone [ng/mL] (median) ([6]; 15 + 15: 15 mg at week 0 and week 2, Week 20): 3.92 ng/mL
Testosterone [ng/mL] (median) ([6]; 15 + 15: 15 mg at week 0 and week 2, Week 24): 3.86 ng/mL
decrease in urgency to urinate compared to placebo (study subjects [7]; [23]): up to 0.74
Urgency to urinate (n-times, mean) (study subjects [7]; Week 0): 2.80 n-times
Urgency to urinate (n-times, mean) (study subjects [7]; Week 4): 2.17 n-times
Urgency to urinate (n-times, mean) (study subjects [7]; Week 8): 1.89 n-times
Urgency to urinate (n-times, mean) (study subjects [7]; Week 12): 1.75 n-times
Urgency to urinate (n-times, mean) (study subjects [7]; Week 16): 1.39 n-times
Urgency to urinate (n-times, mean) (study subjects [7]; Week 20): 1.71 n-times
Urgency to urinate (n-times, mean) (study subjects [7]; Week 24): 1.89 n-times
